Measured values published in patent US12605517B1 (Belhaven BioPharma Inc., priority 2024, dated 2026).

Experiments:
[1] = Human Phase 1 clinical study, plasma epinephrine pharmacokinetics and bioavailability; assay type: in vivo; conditions: for Tmax: read-out: median Tmax (converted)
[2] = Study 101, plasma epinephrine pharmacokinetics; assay type: in vivo; conditions: human, im
Experimental: Each patient was provided each treatment of the trial with 72-hour washout periods between each treatment, beginning with a 3.5 mg intranasal dose, followed by a 0.3 mg intramuscular dose, followed by a 0.5 mg intramuscular dose, and concluding with a 5.5 mg intranasal dose, with a safety follow-up performed 3 to 5 days after the final dose was administered. The primary endpoints of the study were pharmacokinetic measurements and assessments of comparative bioavailability, while the secondary endpoints were safety concerns and pharmacodynamic assessments.

Cmax ([1]; 0.3 mg IM, read-out: mean baseline-corrected Cmax): 0.184 ng/mL
Tmax ([1]; 0.3 mg IM): 48 min
Tmax ([1]; 0.5 mg IM): 48 min
Tmax ([2]; 0.3 mg, 0.3 mg IM, read-out: Tmax (Mean) (converted)): 41.4 min
Tmax ([2]; 0.3 mg, 0.3 mg IM, read-out: Tmax (Median) (converted)): 48 min
Tmax ([2]; 0.5 mg, 0.5 mg IM, read-out: Tmax (Mean) (converted)): 40.9 min
Tmax ([2]; 0.5 mg, 0.5 mg IM, read-out: Tmax (Median) (converted)): 48 min
SMILES: CNC[C@H](O)c1ccc(O)c(O)c1 [Epinephrine IM, epinephrine]
